Results on five molecules are retold here after patent publication US20240050422A1, “DRUG DELIVERY VIA MONOACYLGLYCEROL AND FREE FATTY ACID-BASED COMPOSITIONS” (GLYCOSBIO, INC., priority 2021, published 2024).

Where two headings read alike, the source gives them in different places.

For data set [1] the following is noted: 10 mg/mL.
Experimental: Sesame EMO nanoemulsion (nS50) was prepared from a combination of sesame EMO and FFA oil. Sesame EMO (0.852 g) and sesame FFA (0.648 g) were weighed into a 50 mL metal beaker and heated to 60° C. A coarse emulsion was prepared by adding 13.5 mL water (pre-heated to 60° C.) to the oil. The mixture was subjected to high-sheer homogenizer for 30 seconds, resulting in a milky coarse emulsion. The coarse emulsion was then transferred to QSonica Q700CA sonicator with ½ inch probe. The emulsion was processed for 2 cycles (5 minutes sonication/2 minutes cooling) at 90% power. Approximately 1 mL of trifluoroacetyl tripeptide-2 (Cayman Chemical Company) solution (10 mg/mL in 10% DMSO in water) or trifluoroacetyl tripeptide-2 nanoemulsion (10 mg/mL in 10% DMSO in nS50) were added to the donor chamber. At each time point, 70 μL was removed from the receiver chamber and replaced with an equivalent volume of fresh PBS to maintain constant volume. The aliquot from each time point was analyzed by HPLC to determine amount of drug permeating through the membrane over time.
For data set [2] the following is noted: over 24 hours; 10 mg/mL.
Experimental: Sesame EMO nanoemulsion (nS50) was prepared from a combination of sesame EMO and FFA oil. Sesame EMO (0.852 g) and sesame FFA (0.648 g) were weighed into a 50 mL metal beaker and heated to 60° C. A coarse emulsion was prepared by adding 13.5 mL water (pre-heated to 60° C.) to the oil. The mixture was subjected to high-sheer homogenizer for 30 seconds, resulting in a milky coarse emulsion. The coarse emulsion was then transferred to QSonica Q700CA sonicator with ½ inch probe. The emulsion was processed for 2 cycles (5 minutes sonication/2 minutes cooling) at 90% power. […] At each time point, 70 μL was removed from the receiver chamber and replaced with an equivalent volume of fresh PBS to maintain constant volume. The aliquot from each time point was analyzed by HPLC to determine amount of drug permeating through the membrane over time. The HPLC system consisted of an LC-20AD pump, SIL-20AC HT autosampler, CTO-20A column oven, and SPD-20A UV/vis detector (Shimadzu Scientific Instruments, Inc.). HPLC conditions were: 30 μL injection volume, isocratic elution of mobile phase consisting of 60% methanol and 40% phosphoric acid (0.1%), flow rate of 1.000 mL/min, column temperature of 40° C., and detection at 210 nm.
The conditions of data set [3]: over 7 hours; 1 mg/mL, pH 5-6.
Experimental: At each time point, 80 μL was removed from the receiver chamber and replaced with an equivalent volume of fresh PBS to maintain constant volume. The aliquot from each time point was analyzed by HPLC to determine amount of drug permeating through the membrane over time. The HPLC system consisted of an LC-20AD pump, SIL-20AC HT autosampler, CTO-20A column oven, and SPD-20A UV/vis detector (Shimadzu Scientific Instruments, Inc.). HPLC conditions were: 30 μL injection volume, isocratic elution of mobile phase consisting of 50% methanol and 50% phosphoric acid (0.1%), flow rate of 1.000 mL/min, column temperature of 40° C., and detection at 275 nm.
The conditions of data set [4]: cited from earlier work.
The conditions of data set [5]: at 3 hours; 0.5 mg/mL.
Experimental: Approximately 1 mL of bupivacaine solution (0.5 mg/mL in water) or bupivacaine nanoemulsion (0.5 mg/mL in nS100) were added to the donor chamber. At each time point, 70 μL was removed from the receiver chamber and replaced with an equivalent volume of fresh PBS to maintain constant volume. The aliquot from each time point was analyzed by HPLC to determine amount of drug permeating through the membrane over time. The HPLC system consisted of an LC-20AD pump, SIL-20AC HT autosampler, CTO-20A column oven, and SPD-20A UV/vis detector (Shimadzu Scientific Instruments, Inc.). HPLC conditions were: 30 μL injection volume, isocratic elution of mobile phase consisting of 75% methanol and 25% 10 mM sodium phosphate buffer (pH 7.8), flow rate of 1.000 mL/min, column temperature of 40° C., and detection at 263 nm.

In the case of trifluoroacetyl tripeptide-2, the “trifluoroacetyl tripeptide-2 permeation” value in data set [1] (after 24 hours) is 1.1 ug/cm^2; in data set [1] (at 6 hours), “no peptide permeation”. For the molecule “hexapeptide-11 [free peptide control (hexapeptide-11)]”, in data set [2], the hexapeptide-11 permeation result was “no peptide permeation”. For `O=C(O)c1ccccc1O` [free drug control (salicylic acid), salicylic acid], the salicylic acid permeation entry in data set [3] is recorded as “no salicylic acid permeation”. Regarding `C=C(C)[C@@H]1CCC(C)=C[C@H]1c1c(O)cc(CCCCC)cc1O` [CBD, cannabidiol], the solubility in water result in data set [4] was “essentially insoluble in water”. For the molecule `CCCCN1CCCCC1C(=O)Nc1c(C)cccc1C` (stereo not drawn) [free drug control (bupivacaine), bupivacaine], the bupivacaine permeation entry in data set [5] is listed as “undetectable permeation”.
